Assay results from patent US20050282840A1, “Methods of modulating neurotrophin-mediated activity” (PainCeptor Pharma Corporation, priority 2004, published 2005).
Like-named read-outs stand apart in the source and are kept apart here.

Tests used:
[1] = tested on: p75; experiment: Neurotrophin-receptor crosslinking assay, 125I-NGF (Example 3); assay type: binding; settings: for 125I-NGF X-linking Sample (% binding): crosslinked sample counted on gamma counter; for 125I-NGF X-linking p75 band (% binding): p75 band counted on gamma counter
Procedure: (§1) PC12 cells or TrkB-expressing PC12^nnr5 cells were recovered using Gey's solution, pelleted by centrifugation, and suspended in HKR (HEPES-Krebs Ringer Solution; [10 mM HEPES, 125 mM NaCl, 4.8 mM KCl, 1.3 mM CaCl2.2H2O, 1.2 mM MgSO4, 1.2 mM KH2PO4, 1 mg/mL BSA, 1 mg/mL glucose, pH 7.35]). In a total volume of 1 mL, 1×10^6 cells were incubated, rotating, with 0.1 nM ^125I-BDNF or ^125I-NGF and additions (Compound A or Compound B at the indicated final concentrations) for 2 h at 4° C. At the conclusion of the binding reaction, a 20 μL volume of BS^3 was added to a final concentration of 0.4 mM and incubated, rocking, for an additional 30 min at room temperature. Cells were washed twice in TBS. For analysis of ^125I-NGF crosslinking to TrkA, ^125I-NGF crosslinking to p75^NTR, and ^125I-BDNF crosslinking to p75^NTR, samples were solubilized directly in SDS sample buffer and heated for 10 min at 95° C. For analysis of ^125I-BDNF crosslinking to TrkB, samples were immunoprecipitated with a pan-Trk antibody. All samples were electrophoresed on a 6% SDS-polyacrylamide gel, dried, and autoradiographed. Dried gels were registered to the autoradiograph and each labeled protein band was quantified by direct gamma counting. Non-linear regression analysis was performed by Prism 3.0 to generate concentration-effect curves and determine IC50 values.
(§2) The neurotrophin-receptor crosslinking assay described in Example 1 was used to determine binding of compounds 65, 3, 43 and 97 to ^125I-NGF and ^125I-BDNF.
(§3) ^1The p75 band was excised from the gel and cpm were determined on a gamma counter. Values were calculated as follows: [formula]
(§4) ^2An aliquot of the total crosslinked sample in SDS-sample buffer was counted on a gamma counter. Values were calculated as follows: [formula]

[2] = tested on: p75^NTR receptors (PC12 cells); experiment: Basic screening assay: binding of 125I-NGF to PC12 cells; settings: for 125I-NGF Binding (% binding): Example 3 table; for NGF Activity % Maximal Binding: test compound 50 μM, 0.5 nM 125I-NGF, PC12 cells, 2 h at 4° C., specific binding as percent of control
How it was run: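 PC12 cells (4×10^6) incubated 2 h at 4° C with 0.5 nM 125I-NGF and test compound at 50 μM, rotating. Bound tracer pelleted through 10% glycerol and gamma-counted; specific binding expressed as percent of control after NSB subtraction.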

[3] = target: T1, p75^NTR receptors (PC12 cells) (Rattus norvegicus, UniProt P07174); experiment: Basic screening assay: binding of 125I-BDNF to PC12 cells; settings: for 125I-BDNF Binding (% binding): Example 3 table; for activity at 50 µM: read-out: BDNF Activity % Maximal Binding
T1 construct: endogenous in cells; host or cells: PC12 cells
T1 sequence (P07174 30-425): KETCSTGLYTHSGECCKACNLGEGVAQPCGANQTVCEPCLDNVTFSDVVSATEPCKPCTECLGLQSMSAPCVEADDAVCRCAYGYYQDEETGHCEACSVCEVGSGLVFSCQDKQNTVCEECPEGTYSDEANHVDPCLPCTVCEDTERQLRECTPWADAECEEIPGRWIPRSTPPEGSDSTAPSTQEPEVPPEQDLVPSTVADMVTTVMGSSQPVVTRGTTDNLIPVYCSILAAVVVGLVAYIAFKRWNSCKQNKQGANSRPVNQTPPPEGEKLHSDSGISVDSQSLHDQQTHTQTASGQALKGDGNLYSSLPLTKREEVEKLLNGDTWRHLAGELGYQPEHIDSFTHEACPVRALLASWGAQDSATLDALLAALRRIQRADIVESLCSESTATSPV
T1 sequence (P23560 129-247 partner): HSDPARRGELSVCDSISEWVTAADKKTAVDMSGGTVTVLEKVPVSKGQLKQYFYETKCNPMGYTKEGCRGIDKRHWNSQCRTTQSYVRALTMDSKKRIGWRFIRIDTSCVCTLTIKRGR
How it was run: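 4×10^6 PC12 cells incubated 2 h at 4° C, rotating, with 0.5 nM ^125I-BDNF (final) and compound at 50 μM, in duplicate or more. Bound ligand separated through 10% glycerol by centrifugation and counted by gamma counter; specific binding is Bmax minus NSB; inhibitors followed up for EC50.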

[4] = tested on: p75; experiment: Neurotrophin-receptor crosslinking assay, 125I-BDNF (Example 3); assay type: binding; settings: for 125I-BDNF X-linking Sample (% binding): crosslinked sample counted on gamma counter; for 125I-BDNF X-linking p75 band (% binding): p75 band counted on gamma counter
Procedure: as §1, §2, §3, §4

[5] = Table 4, test compound 50 μM, 0.5 nM 125I-BDNF, PC12 cells, 2 h at 4° C., specific binding as percent of control

Cc1cc(-c2ccc(C=C3C(=O)NC(=S)NC3=O)o2)c(C)c([N+](=O)[O-])c1 [Compound 3, 5-[5-(2,5-Dimethyl-3-nitrophenyl)furan-2-ylmethylene]-2-thioxo-dihydro-pyrimidine-4,6-dione]
125I-NGF X-linking Sample (% binding) [1]: * (50 < *)
125I-NGF X-linking p75 band (% binding) [1]: * (50 < *)
125I-NGF Binding (% binding) [2]: * (50 < *)
NGF Activity % Maximal Binding ([2]; Table 1): * (50 < *)
125I-BDNF Binding (% binding) [3]: XXXXX (0 < XXXXX < 10)
activity at 50 µM [3]: 0 to 10%
125I-BDNF X-linking Sample (% binding) [4]: XXXXX (0 < XXXXX < 10)
125I-BDNF X-linking p75 band (% binding) [4]: XXXXX (0 < XXXXX < 10)

O=C(O)c1cc(-c2ccc(/C=C3\NC(=O)N(c4cccc(Cl)c4)C3=O)o2)ccc1Cl [Compound 43, 2-Chloro-5-{5-[1-(3-chlorophenyl)-2,5-dioxo-imidazolidin-4-ylidenemethyl]furan-2-yl}benzoic acid]
125I-NGF X-linking Sample (% binding) [1]: * (50 < *)
125I-NGF X-linking p75 band (% binding) [1]: * (50 < *)
125I-NGF Binding (% binding) [2]: * (50 < *)
NGF Activity % Maximal Binding ([2]; Table 1): * (50 < *)
125I-BDNF Binding (% binding) [3]: XXX (20 < XXX < 30)
activity at 50 µM ([3]; Table 1, test compound 50 μM, 0.5 nM 125I-BDNF, PC12 cells, 2 h at 4° C., specific binding as percent of control): 30 to 40%
125I-BDNF X-linking Sample (% binding) [4]: XXX (20 < XXX < 30)
125I-BDNF X-linking p75 band (% binding) [4]: XXXXX (0 < XXXXX < 10)

O=C1NC(=S)NC(=O)C1=Cc1ccc(-c2ccc(C(=O)O)c(Cl)c2)o1 [Compound 65, 2-Chloro-4-[5-(4,6-dioxo-2-thioxo-tetrahydro-pyrimidin-5-ylidenemethyl)furan-2-yl]benzoic acid]
125I-NGF X-linking Sample (% binding) [1]: * (50 < *)
125I-NGF X-linking p75 band (% binding) [1]: * (50 < *)
125I-NGF Binding (% binding) [2]: XXX (20 < XXX < 30)
NGF Activity % Maximal Binding ([2]; Table 2): XXX (20 < XXX < 30)
125I-BDNF Binding (% binding) [3]: XXXXX (0 < XXXXX < 10)
activity at 50 µM [3]: 0 to 10%
125I-BDNF X-linking Sample (% binding) [4]: XXXXX (0 < XXXXX < 10)
125I-BDNF X-linking p75 band (% binding) [4]: XXXXX (0 < XXXXX < 10)

Cc1ccc(-c2ccc(/C=C3/NC(=O)N(Cc4ccccc4F)C3=O)o2)cc1[N+](=O)[O-] [Compound 129, 3-(2-Fluorobenzyl)-5-[5-(4-methyl-3-nitrophenyl)furan-2-ylmethylene]-imidazolidine-2,4-dione]
NGF Activity % Maximal Binding ([2]; Table 4): * (50 < *)
activity at 50 µM [3, 5]: > 50%

Cc1c(C(=O)O)cccc1-c1ccc(/C=C2/NC(=O)N(c3cccc(Cl)c3)C2=O)o1 [Compound 130, 3-{5-[1-(3-Chlorophenyl)-2,5-dioxo-imidazolidin-4-ylidenemethyl]furan-2-yl}-2-methylbenzoic acid]
NGF Activity % Maximal Binding ([2]; Table 4): * (50 < *)
activity at 50 µM [3, 5]: > 50%

Cc1cc([N+](=O)[O-])ccc1-c1ccc(/C=C2\NC(=O)N(Cc3ccccc3F)C2=O)o1 [Compound 131, 3-(2-Fluorobenzyl)-5-[5-(2-methyl-4-nitrophenyl)furan-2-ylmethylene]-imidazolidine-2,4-dione]
NGF Activity % Maximal Binding ([2]; Table 4): * (50 < *)
activity at 50 µM [3, 5]: > 50%

CCOC(=O)CN1C(=O)S/C(=C/c2ccc(-c3ccc([N+](=O)[O-])cc3Cl)o2)C1=O [Compound 132, {5-[5-(2-Chloro-4-nitrophenyl)furan-2-ylmethylene]-2,4-dioxo-thiazolidin-3-yl}-acetic acid ethyl ester]
NGF Activity % Maximal Binding ([2]; Table 4): * (50 < *)
activity at 50 µM [3, 5]: > 50%

COc1cc([N+](=O)[O-])ccc1-c1ccc(/C=C2/NC(=O)N(Cc3ccccc3F)C2=O)o1 [Compound 133, 3-(2-Fluorobenzyl)-5-[5-(2-methoxy-4-nitrophenyl)furan-2-ylmethylene]-imidazolidine-2,4-dione]
NGF Activity % Maximal Binding ([2]; Table 4): * (50 < *)
activity at 50 µM [3, 5]: > 50%

Cc1cccc(N2NC(=O)C(=Cc3ccc(-c4ccc(Cl)c(C(=O)O)c4)o3)C2=O)c1 [Compound 134, 2-Chloro-5-[5-(3,5-dioxo-1-m-tolyl-pyrazolidin-4-ylidenemethyl)furan-2-yl]benzoic acid]
NGF Activity % Maximal Binding ([2]; Table 4): * (50 < *)
activity at 50 µM [3, 5]: > 50%

COC(=O)c1ccc(-c2ccc(/C=C3/NC(=O)N(c4cccc(Cl)c4)C3=O)o2)c(C)c1 [Compound 135, 4-{5-[1-(3-Chlorophenyl)-2,5-dioxo-imidazolidin-4-ylidenemethyl]furan-2-yl}-3-methylbenzoic acid methyl ester]
NGF Activity % Maximal Binding ([2]; Table 4): * (50 < *)
activity at 50 µM [3, 5]: > 50%

O=C(O)c1ccc(-c2ccc(/C=C3/NC(=O)N(Cc4ccccc4F)C3=O)o2)cc1 [Compound 136, 4-{5-[1-(2-Fluorobenzyl)-2,5-dioxo-imidazolidin-4-ylidenemethyl]furan-2-yl}benzoic acid]
NGF Activity % Maximal Binding ([2]; Table 4): * (50 < *)
activity at 50 µM [3, 5]: > 50%

COc1cc([N+](=O)[O-])ccc1-c1ccc(/C=C2/NC(=O)N(c3cccc(Cl)c3)C2=O)o1 [Compound 137, 3-(3-Chlorophenyl)-5-[5-(2-methoxy-4-nitrophenyl)furan-2-ylmethylene]-imidazolidine-2,4-dione]
NGF Activity % Maximal Binding ([2]; Table 4): * (50 < *)
activity at 50 µM [3, 5]: > 50%

COc1cc([N+](=O)[O-])ccc1-c1ccc(C=C2C(=O)NN(c3cccc(C)c3)C2=O)o1 [Compound 138, 4-[5-(2-Methoxy-4-nitrophenyl)furan-2-ylmethylene]-1-m-tolyl-pyrazolidine-3,5-dione]
NGF Activity % Maximal Binding ([2]; Table 4): * (50 < *)
activity at 50 µM [3, 5]: > 50%

COC(=O)c1cccc(-c2ccc(/C=C3/NC(=O)N(Cc4ccccc4F)C3=O)o2)c1C [Compound 139, 3-{5-[1-(2-Fluorobenzyl)-2,5-dioxo-imidazolidin-4-ylidenemethyl]furan-2-yl}-2-methylbenzoic acid methyl ester]
NGF Activity % Maximal Binding ([2]; Table 4): * (50 < *)
activity at 50 µM [3, 5]: > 50%

Cc1cccc(N2NC(=O)C(=Cc3ccc(-c4cccc([N+](=O)[O-])c4)o3)C2=O)c1 [Compound 140, 4-[5-(3-Nitrophenyl)furan-2-ylmethylene]-1-m-tolyl-pyrazolidine-3,5-dione]
NGF Activity % Maximal Binding ([2]; Table 4): * (50 < *)
activity at 50 µM [3, 5]: > 50%

COC(=O)CN1C(=S)N(C)C(=O)/C1=C/c1ccc(-c2ccc([N+](=O)[O-])cc2)o1 [Compound 141, {3-Methyl-5-[5-(4-nitrophenyl)furan-2-ylmethylene]-4-oxo-2-thioxo-imidazolidin-1-yl}-acetic acid methyl ester]
NGF Activity % Maximal Binding ([2]; Table 4): * (50 < *)
activity at 50 µM [3, 5]: > 50%

O=C1C(=Cc2ccc(-c3ccc([N+](=O)[O-])cc3)o2)SC(=S)N1c1ccc(O)cc1 [Compound 142, 3-(4-Hydroxyphenyl)-5-[5-(4-nitrophenyl)furan-2-ylmethylene]-2-thioxo-thiazolidin-4-one]
NGF Activity % Maximal Binding ([2]; Table 4): * (50 < *)
activity at 50 µM [3, 5]: > 50%

O=C1C(=Cc2ccc(-c3cccc([N+](=O)[O-])c3)o2)SC(=S)N1CCS(=O)(=O)O [Compound 143, 2-{5-[5-(3-Nitrophenyl)furan-2-ylmethylene]-4-oxo-2-thioxo-thiazolidin-3-yl}-ethanesulfonic acid]
NGF Activity % Maximal Binding ([2]; Table 4): * (50 < *)
activity at 50 µM [3, 5]: > 50%
